Data published in US20200131669A1, “CYCLIC PEPTIDE COMPOUND HAVING HIGH MEMBRANE PERMEABILITY, AND LIBRARY CONTAINING SAME” (Chugai Seiyaku Kabushiki Kaisha, priority 2017, published 2020).
Starred links: 1 amine or outer side, 2 acyl side, 3 side chain; linkers in the order of their positions; H or OH if unused. Positions of bridges follow the written chain, without caps; N, C: chain ends. Non-standard residues stand in square brackets, D forms with d. Residues, ends and D or L forms follow the SMILES beside them. ξ: configuration not given here. *: point of attachment. Phe(4-CHF2) = N[C@@H](Cc1ccc(C(F)F)cc1)C(=O)O; NMePhe(3-Cl) = CN[C@@H](Cc1cccc(Cl)c1)C(=O)O; X5 = O=C(C(CCc1noc(=O)[nH]1)N[*:1])[*:2]; Ethyl(2-morpholino) = C1CN(CC*)CCO1; NMeF = CN[C@@H](Cc1ccccc1)C(=O)O; NMeGABA = CN(CCCC(=O)[*:2])[*:1]; NMeI = CC[C@H](C)[C@H](NC)C(=O)O; ξThr(3R) = C[C@@H](O)C(N)C(=O)O; NMeL = CN[C@@H](CC(C)C)C(=O)O; dNMeL = CN[C@H](CC(C)C)C(=O)O; Propyl(2R-OH) = C[C@@H](O)C*; NMeV = CN[C@H](C(=O)O)C(C)C; NMeAbu = CC[C@H](NC)C(=O)O; NMeA = CN[C@@H](C)C(=O)O; Piperidide = C1CCN(*)CC1; NBuGly = CCCCNCC(=O)O; ξS = NC(CO)C(=O)O; Sar = CNCC(=O)O; tBu = CC(C)(C)*; CHF2 = FC(F)*

Test: Caco-2 membrane permeability, improved method as used in the following Examples (96-well, 20 to 24 h preincubation)
Type: in vitro ADME
Details: human, Caco-2, Caco-2
In short: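 Caco-2 monolayers were grown three weeks and preincubated 20–24 h at 37 °C with compound in DMEM+FaSSIF (1% DMSO) apically. The assay then used compound in FaSSIF/HBSS (1% DMSO, pH 6.0) apically and HBSS with 4% BSA (pH 7.4) basally. Basal samples were taken at 180 min for LC/MS, and Papp (cm/sec) was calculated.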

Row | Compound | Papp A→B at 180 min [nm/s]
1 | CC(C)C[C@@H]1NC(=O)[C@H](C)N(C)C(=O)C[C@@H](C(=O)N2CCCCC2)NC(=O)[C@H](CC(C)C)N(C)C(=O)CN(C)C(=O)[C@H]([C@@H](C)O)NC(=O)[C@H](C(C)C)N(C)C(=O)[C@H](CC(C)C)N(C)C(=O)[C@H](Cc2ccc(C(F)F)cc2)NC(=O)[C@H](CC(C)C)N(C)C(=O)[C@H](CC(C)C)N(C)C1=O [pd474] ([NMeA]L[NMeL][NMeL][Phe(4-CHF2)][NMeL][NMeV]T[Sar][NMeL]D-Piperidide; lactam N-11) | 45
2 | CC[C@H](C)[C@@H]1NC(=O)[C@H](CC(C)C)N(C)C(=O)CN(C)C(=O)C[C@@H](C(=O)N2CCCCC2)NC(=O)[C@H](C(C)C)N(C)C(=O)[C@H](Cc2ccc(C(F)F)cc2)NC(=O)[C@H](CC(C)C)N(C)C(=O)[C@H](Cc2ccccc2)N(C)C(=O)CN(C)C(=O)[C@H]([C@@H](C)O)NC(=O)[C@H](CC(C)C)N(C)C1=O [pd475] ([Sar][NMeL]I[NMeL]T[Sar][NMeF][NMeL][Phe(4-CHF2)][NMeV]D-Piperidide; lactam N-11) | 42
3 | CC(C)C[C@@H]1NC(=O)C[C@@H](C(=O)N2CCCCC2)NC(=O)[C@H](CC(C)C)N(C)C(=O)[C@H](CC(C)C)N(C)C(=O)[C@H](Cc2ccc(OC(F)F)cc2)NC(=O)[C@H](C)N(C)C(=O)CN(C)C(=O)[C@H]([C@@H](C)O)NC(=O)[C@H](CC(C)C)N(C)C(=O)[C@H](C(C)C)NC(=O)[C@H](Cc2ccccc2)N(C)C1=O [pd477] (L[NMeF]V[NMeL]T[Sar][NMeA]Y(CHF2)[NMeL][NMeL]D-Piperidide; lactam N-11) | 22
4 | CC(C)C[C@H]1C(=O)N[C@@H](Cc2ccc(OC(F)F)cc2)C(=O)N(C)[C@@H](CC(C)C)C(=O)N(C)[C@@H](Cc2ccccc2)C(=O)N[C@@H](COC(C)(C)C)C(=O)N(C)[C@@H](CC(C)C)C(=O)NC([C@@H](C)O)C(=O)N(C)[C@@H](C)C(=O)N(C)[C@@H](CC(C)C)C(=O)N[C@@H](C(=O)N2CCCCC2)CC(=O)N(C)CCCC(=O)N1C (stereo partly drawn) [pd478] ([NMeGABA][NMeL]Y(CHF2)[NMeL][NMeF]S(tBu)[NMeL][ξThr(3R)][NMeA][NMeL][dD]-Piperidide; lactam N-11) | 13
5 | CCCCN1CC(=O)N(C)[C@@H](C)C(=O)N[C@H](C(=O)N2CCCCC2)CC(=O)N(C)[C@@H](C)C(=O)N[C@@H](Cc2ccc(OC(F)F)cc2)C(=O)N(C)[C@@H](CC(C)C)C(=O)N(C)[C@@H](Cc2ccccc2)C(=O)N[C@@H](CC(C)C)C(=O)N(C)[C@@H](CC(C)C)C(=O)N(C)[C@@H]([C@@H](C)CC)C(=O)N[C@@H]([C@@H](C)O)C1=O [pd479] ([NMeA]Y(CHF2)[NMeL][NMeF]L[NMeL][NMeI]T[NBuGly][NMeA]D-Piperidide; lactam N-11) | 10
6 | CC[C@H](C)[C@H]1C(=O)N[C@@H]([C@@H](C)O)C(=O)N(C)CC(=O)N(C)[C@@H](CC(C)C)C(=O)N[C@@H](C(=O)N2CCCCC2)CC(=O)N(C)[C@@H](C)C(=O)N[C@@H](CC(C)C)C(=O)N(C)[C@@H](CC(C)C)C(=O)N(C)[C@@H](CC(C)C)C(=O)N[C@@H](Cc2ccc(OC(F)F)cc2)C(=O)N(C)[C@@H](C)C(=O)N1C [pd480] ([NMeA]L[NMeL][NMeL]Y(CHF2)[NMeA][NMeI]T[Sar][NMeL][dD]-Piperidide; lactam N-11) | 50
7 | CC[C@H](C)[C@@H]1NC(=O)[C@H](CC(C)C)N(C)C(=O)CN(C)C(=O)C[C@@H](C(=O)N2CCCCC2)NC(=O)[C@H](C(C)C)N(C)C(=O)[C@H](Cc2ccc(OC(F)F)cc2)NC(=O)[C@H](CC(C)C)N(C)C(=O)[C@H](Cc2ccccc2)N(C)C(=O)CN(C)C(=O)[C@H]([C@@H](C)O)NC(=O)[C@H](CC(C)C)N(C)C1=O [pd481] ([Sar][NMeL]I[NMeL]T[Sar][NMeF][NMeL]Y(CHF2)[NMeV]D-Piperidide; lactam N-11) | 38
8 | CCCCN1CC(=O)N(C)[C@@H](CC(C)C)C(=O)N[C@H](C(=O)N2CCCCC2)CC(=O)N(C)[C@@H](CC)C(=O)NC(COCCN2CCOCC2)C(=O)N(C)[C@@H](CC(C)C)C(=O)N(C)[C@@H](CC)C(=O)N[C@@H](C(C)C)C(=O)N(C)[C@@H](Cc2ccccc2)C(=O)N(C)[C@@H](CC(C)C)C(=O)N[C@@H]([C@@H](C)O)C1=O (stereo partly drawn) [pd483] ([NMeAbu][ξS](Ethyl(2-morpholino))[NMeL][NMeAbu]V[NMeF][NMeL]T[NBuGly][NMeL]D-Piperidide; lactam N-11) | 19
9 | CCCCN1CC(=O)N(C)[C@@H](Cc2ccccc2)C(=O)N(C)[C@@H](CC(C)C)C(=O)N[C@@H](C(C)C)C(=O)N(C)[C@@H](CC(C)C)C(=O)N[C@H](C(=O)N2CCCCC2)CC(=O)N(C)CC(=O)N(C)[C@@H](CC(C)C)C(=O)NC(COCCN2CCOCC2)C(=O)N(C)[C@@H](CC(C)C)C(=O)N[C@@H]([C@@H](C)O)C1=O (stereo partly drawn) [pd484] ([Sar][NMeL][ξS](Ethyl(2-morpholino))[NMeL]T[NBuGly][NMeF][NMeL]V[NMeL]D-Piperidide; lactam N-11) | 18
10 | CC[C@H](C)[C@@H]1NC(=O)[C@H](CC(C)C)N(C)C(=O)CCCN(C)C(=O)C[C@@H](C(=O)N2CCCCC2)NC(=O)[C@H](CC(C)C)N(C)C(=O)[C@H](CC(C)C)N(C)C(=O)[C@H](COCCN2CCOCC2)NC(=O)[C@H](CC(C)C)N(C)C(=O)[C@H](COC(C)(C)C)NC(=O)[C@H](CC)N(C)C(=O)[C@H](Cc2ccccc2)N(C)C1=O [pd485] ([NMeGABA][NMeL]I[NMeF][NMeAbu]S(tBu)[NMeL]S(Ethyl(2-morpholino))[NMeL][NMeL]D-Piperidide; lactam N-11) | 12
11 | CCCCN1CC(=O)N(C)[C@@H](Cc2ccccc2)C(=O)N(C)[C@@H](CC(C)C)C(=O)N[C@@H](COC(C)(C)C)C(=O)N(C)[C@@H](CC(C)C)C(=O)N[C@H](C(=O)N2CCCCC2)CC(=O)N(C)CC(=O)N(C)[C@@H](Cc2cccc(Cl)c2)C(=O)N[C@@H](COC[C@@H](C)O)C(=O)N(C)[C@@H](CC(C)C)C(=O)N[C@@H]([C@@H](C)O)C1=O [pd490] ([Sar][NMePhe(3-Cl)]S(Propyl(2R-OH))[NMeL]T[NBuGly][NMeF][NMeL]S(tBu)[NMeL]D-Piperidide; lactam N-11) | 10
12 | CC(C)C[C@H]1C(=O)N[C@@H](C(C)C)C(=O)N(C)[C@@H](Cc2ccccc2)C(=O)N(C)[C@@H](Cc2ccccc2)C(=O)N[C@@H](COC(C)(C)C)C(=O)N(C)[C@@H](CC(C)C)C(=O)N[C@@H](COC[C@@H](C)O)C(=O)N(C)[C@@H](CC(C)C)C(=O)N(C)[C@@H](CC(C)C)C(=O)N[C@H](C(=O)N2CCCCC2)CC(=O)N(C)CCCC(=O)N1C [pd493] ([NMeGABA][NMeL]V[NMeF][NMeF]S(tBu)[NMeL]S(Propyl(2R-OH))[NMeL][NMeL]D-Piperidide; lactam N-11) | 13
13 | CC[C@H](C)[C@H]1C(=O)N[C@@H](COC[C@@H](C)O)C(=O)N(C)CC(=O)N(C)[C@@H](CC(C)C)C(=O)N[C@H](C(=O)N2CCCCC2)CC(=O)N(C)[C@@H](C)C(=O)N[C@@H](CC(C)C)C(=O)N(C)[C@@H](CC(C)C)C(=O)N(C)[C@@H](Cc2ccccc2)C(=O)N[C@@H](CC(C)C)C(=O)N(C)[C@@H](Cc2ccccc2)C(=O)N1C [pd494] ([NMeA]L[NMeL][NMeF]L[NMeF][NMeI]S(Propyl(2R-OH))[Sar][NMeL]D-Piperidide; lactam N-11) | 52
14 | CC[C@H](C)[C@H]1C(=O)N[C@@H](C(C)C)C(=O)N(C)CC(=O)N(C)[C@@H](CC(C)C)C(=O)N[C@H](C(=O)N2CCCCC2)CC(=O)N(C)[C@@H](C)C(=O)N[C@@H](COC[C@@H](C)O)C(=O)N(C)[C@H](CC(C)C)C(=O)N(C)[C@@H](Cc2ccccc2)C(=O)N[C@@H](CC(C)C)C(=O)N(C)[C@@H](Cc2ccccc2)C(=O)N1C [pd495] ([NMeA]S(Propyl(2R-OH))[dNMeL][NMeF]L[NMeF][NMeI]V[Sar][NMeL]D-Piperidide; lactam N-11) | 37

Same assay, conditions: human; Papp, Caco-2 membrane permeability, improved method; read-out: Caco-2

Row | Compound | Papp A→B at 180 min [nm/s]
15 | CC[C@H](C)[C@H]1C(=O)N[C@@H]([C@@H](C)O)C(=O)N(C)CC(=O)N(C)[C@@H](CC)C(=O)N[C@H](C(=O)N2CCCCC2)CC(=O)N(C)[C@@H](C)C(=O)N[C@@H](Cc2ccc(C(F)F)cc2)C(=O)N(C)[C@@H](CC(C)C)C(=O)N(C)[C@@H](Cc2ccccc2)C(=O)N[C@@H](CC(C)C)C(=O)N(C)[C@@H](CC(C)C)C(=O)N1C [pd473] ([NMeA][Phe(4-CHF2)][NMeL][NMeF]L[NMeL][NMeI]T[Sar][NMeAbu]D-Piperidide; lactam N-11) | 45
16 | CCCCN1CC(=O)N(C)[C@@H](CC(C)C)C(=O)N[C@H](C(=O)N2CCCCC2)CC(=O)N(C)[C@@H](CC)C(=O)N[C@@H](CC(C)C)C(=O)N(C)[C@@H](CC(C)C)C(=O)N(C)[C@@H](Cc2ccccc2)C(=O)NC(CCc2noc(=O)[nH]2)C(=O)N(C)[C@@H](CC(C)C)C(=O)N(C)[C@@H](CC(C)C)C(=O)NC([C@@H](C)O)C1=O (stereo partly drawn) [pd487] ([NMeAbu]L[NMeL][NMeF][X5][NMeL][NMeL][ξThr(3R)][NBuGly][NMeL]D-Piperidide; lactam N-11) | 22
17 | CCCCN1CC(=O)N(C)[C@@H](Cc2ccccc2)C(=O)N(C)[C@@H](CC(C)C)C(=O)N[C@@H](CC(C)C)C(=O)N(C)[C@@H](CC(C)C)C(=O)N[C@H](C(=O)N2CCCCC2)CC(=O)N(C)CC(=O)N(C)[C@@H](CC(C)C)C(=O)N[C@@H](C(C)C)C(=O)N(C)[C@@H](CC(C)C)C(=O)NC(CCc2noc(=O)[nH]2)C1=O (stereo partly drawn) [pd488] ([Sar][NMeL]V[NMeL][X5][NBuGly][NMeF][NMeL]L[NMeL]D-Piperidide; lactam N-11) | 16
18 | CC(C)C[C@H]1C(=O)N[C@@H](COC(C)(C)C)C(=O)N(C)[C@@H](Cc2ccccc2)C(=O)N(C)[C@@H](CC(C)C)C(=O)N[C@H](C(=O)N2CCCCC2)CC(=O)N[C@@H](C(C)C)C(=O)N(C)[C@@H](Cc2ccccc2)C(=O)N[C@@H](COC[C@@H](C)O)C(=O)N(C)[C@@H](CC(C)C)C(=O)N[C@@H](C(C)C)C(=O)N(C)CC(=O)N1C [pd492] (V[NMeF]S(Propyl(2R-OH))[NMeL]V[Sar][NMeL]S(tBu)[NMeF][NMeL]D-Piperidide; lactam N-11) | 25
